Assay [1] has as its system PPARgamma. The assay is described as follows: Transcription reporter assay (PPRE-luciferase) in 3T3-L1 adipocytes. The settings on record: 10 μmol/L, 24 hours. Format: cell-based, mouse. How it is done: (§1) 3T3-L1 adipocytes (day 4) or PC12W cells are transfected with Lipofectamine 2000 (Invitrogen) in the presence of 1 μg (for 3T3-L1 cells) or 50 ng (for PC12W cells) of a reporter construct, PPARgamma2 and RXRalpha expression vectors and 10 ng of a Renilla Luciferase Reporter control vector. The reporter construct is a fusion of 3xAcyl-CoA oxidase PPAR Response Element (PPRE) with Tk-luciferase. […] The Luciferase Reporter control vector is the plasmid pRL-CMV (Promega).
For orientation: A reporter such as luciferase makes a cellular process visible.

Assay [2] concerns the target T1, PPARgamma (Homo sapiens, UniProt P37231).
T1 construct: expressed in transfected cells; host or cells: PC12W cells (AT1-receptor-deficient), transient transfection
T1 sequence (P37231 1-505): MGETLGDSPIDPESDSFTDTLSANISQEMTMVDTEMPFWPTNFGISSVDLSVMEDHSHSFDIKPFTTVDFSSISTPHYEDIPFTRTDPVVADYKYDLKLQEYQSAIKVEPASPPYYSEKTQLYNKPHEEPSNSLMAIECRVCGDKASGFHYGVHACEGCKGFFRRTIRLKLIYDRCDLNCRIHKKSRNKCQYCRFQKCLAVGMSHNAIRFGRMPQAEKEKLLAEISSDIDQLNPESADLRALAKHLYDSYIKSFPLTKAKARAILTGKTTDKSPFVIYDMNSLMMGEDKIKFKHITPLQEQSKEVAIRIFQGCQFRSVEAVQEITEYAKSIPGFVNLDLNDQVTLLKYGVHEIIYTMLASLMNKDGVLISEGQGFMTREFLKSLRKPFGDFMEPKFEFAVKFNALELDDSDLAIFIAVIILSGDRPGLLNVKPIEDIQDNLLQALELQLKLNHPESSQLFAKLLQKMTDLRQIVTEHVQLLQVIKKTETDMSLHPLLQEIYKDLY
T1 sequence (P19793 1-462 partner): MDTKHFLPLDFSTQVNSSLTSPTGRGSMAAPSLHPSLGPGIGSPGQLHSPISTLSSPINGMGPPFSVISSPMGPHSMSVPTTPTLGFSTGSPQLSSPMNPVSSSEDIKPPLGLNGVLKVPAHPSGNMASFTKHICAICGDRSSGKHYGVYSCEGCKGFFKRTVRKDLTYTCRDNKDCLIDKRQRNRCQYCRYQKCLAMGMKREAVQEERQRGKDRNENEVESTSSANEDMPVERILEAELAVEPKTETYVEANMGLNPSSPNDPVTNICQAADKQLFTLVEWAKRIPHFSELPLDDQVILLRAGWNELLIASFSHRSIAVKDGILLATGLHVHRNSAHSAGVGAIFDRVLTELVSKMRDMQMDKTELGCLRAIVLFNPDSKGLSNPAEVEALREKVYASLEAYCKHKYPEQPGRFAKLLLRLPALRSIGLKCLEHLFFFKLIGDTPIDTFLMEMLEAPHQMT
Nature of the assay: Transcription reporter assay (PPRE-luciferase) in AT1-receptor-deficient PC12W cells. In kind it is cell-based. The settings on record: 10 μmol/L. How it is done:
as §1
PC12W cells are AT1-receptor-deficient.

Assay [3] deals with T2, ligand binding domain of the human PPARgamma2 transcription factor (Gal4 DNA binding domain fusion) (Homo sapiens, UniProt P37231).
T2 construct: codes for amino acids 205-505 of the human PPARgamma2 transcription factor; expressed in transfected cells
T2 sequence (P37231 205-505): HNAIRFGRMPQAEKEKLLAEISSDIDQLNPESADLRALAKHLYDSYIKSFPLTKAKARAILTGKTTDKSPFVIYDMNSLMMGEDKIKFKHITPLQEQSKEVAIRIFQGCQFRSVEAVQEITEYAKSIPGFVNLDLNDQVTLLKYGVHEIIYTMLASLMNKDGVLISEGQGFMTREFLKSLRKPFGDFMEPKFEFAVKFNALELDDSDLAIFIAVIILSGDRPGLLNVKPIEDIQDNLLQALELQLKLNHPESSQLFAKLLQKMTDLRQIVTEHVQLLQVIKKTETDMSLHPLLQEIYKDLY
Nature of the assay: Luciferase activity in stably transformed PPARgamma reporter cell line (CHO-K1 clone 11). The settings on record: 24 hours. Format: cell-based. As for the experimental part: The resulting plasmid pFA-CMV/hPPARgamma2-LBD codes N-terminally of the PPARgamma-LBD in the same reading frame for a Gal4 DNA binding domain. In addition the plasmid codes for a neomycin resistance.
The cell line CHO-K1 (ATCC CCL-61) is cotransfected with the plasmids pFA-CMV/hPPARgamma2-LBD and pFR-Luc (Stratagene). pFR-Luc codes for the luciferase gene under the control of a five-times repeated yeast Gal4 binding site. The transfection is carried out with lipofectamine2000 in accordance with the manufacturer's instructions.
After six days' cultivation the cells are passaged and kept in culture for another 10 days. The resulting neomycin-resistant colonies are picked out under the microscope and transferred into 96 well-dishes and cultured.
The test substances are brought to 100 times the desired concentration with a suitable solvent, e.g. DMSO, and diluted 1:100 with the medium placed in the cell culture plate. The solvent used, e.g. DMSO, is used as the background control in the same concentration.
Luminescence is measured after a five minute wait using a Packard TopCount NXT. The luciferase activity is obtained by integrating the relative luciferase units (RLU) of the first ten seconds after the start of measurement.

This note sets out measurements from US20050070594A1, “Use of angiotensin II receptor antagonists” (Boehringer Ingelheim International GmbH, priority 2003, published 2005).

On to `CCCc1nc2c(C)cc(-c3nc4ccccc4n3C)cc2n1Cc1ccc(-c2ccccc2C(=O)O)cc1` [telmisartan], for which the “induction of the transcriptional activity of PPARgamma, factor” value with PPARgamma [1] turned out to be 3.4±0.9. In addition, the “regulation of the PPARgamma activity” value at PPARgamma [2] (PC12W cells in the absence of exogenous PPARgamma2/RXRalpha) was “no regulation”. The “induction of PPARgamma activity, factor” value at PPARgamma [2] (PC12W cells overexpressing PPARgamma2/RXRalpha) turned out to be 1.9±0.4. The “luciferase activity (MW)” value in assay [3] (1.00E−05 M) turned out to be 61397 RLU; in assay [3] (1.00E−06 M), 2859 RLU; in assay [3] (3.00E−05 M) it was 58790 RLU; in assay [3] (3.00E−06 M), 24498 RLU; in assay [3] (3.00E−07 M), 760 RLU.
